Source: patent US20160368898A1, “2-PYRIDYLOXY-4-METHYL OREXIN RECEPTOR ANTAGONISTS” (MERCK SHARP & DOHME CORP., priority 2013, published 2016)

Experiments:
[1] = target: T1, human orexin-2 receptor (hOX2R) (Homo sapiens, UniProt O43614); assay: FLIPR Ca2+ Flux Assay, CHO cells expressing the human orexin-2 receptor; assay type: cell-based; conditions: agonist 70 pM Ala-6,12 human orexin-A
T1 construct: expressed in transfected cells; host or cells: CHO cells (grown under G418)
T1 sequence (O43614 1-444): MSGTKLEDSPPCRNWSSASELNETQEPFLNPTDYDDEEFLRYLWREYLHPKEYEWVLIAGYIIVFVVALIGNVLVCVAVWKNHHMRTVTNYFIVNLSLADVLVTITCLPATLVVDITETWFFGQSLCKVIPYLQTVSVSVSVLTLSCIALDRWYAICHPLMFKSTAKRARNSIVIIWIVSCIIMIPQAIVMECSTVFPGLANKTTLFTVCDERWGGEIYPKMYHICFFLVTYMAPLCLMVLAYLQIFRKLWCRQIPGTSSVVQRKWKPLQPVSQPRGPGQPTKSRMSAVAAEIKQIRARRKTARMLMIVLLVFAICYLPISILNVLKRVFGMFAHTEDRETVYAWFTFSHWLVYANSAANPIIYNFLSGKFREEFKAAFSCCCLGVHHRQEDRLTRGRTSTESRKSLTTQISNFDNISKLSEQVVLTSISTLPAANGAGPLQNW
Experimental: The utility of the compounds in accordance with the present invention as orexin receptor OX1R and/or OX2R antagonists may be readily determined without undue experimentation by methodology well known in the art, including the “FLIPR Ca^2+ Flux Assay” (Okumura et al., Biochem. Biophys. Res. Comm. 280:976-981, 2001). In a typical experiment the OX1 and OX2 receptor antagonistic activity of the compounds of the present invention was determined in accordance with the following experimental method. For intracellular calcium measurements, Chinese hamster ovary (CHO) cells expressing the rat orexin-1 receptor or the human orexin-2 receptor, are grown in Iscove's modified DMEM containing 2 mM L-glutamine, […], 1% hypoxanthine-thymidine supplement, 100 U/ml penicillin, 100 μg/ml streptomycin and 10% heat-inactivated fetal calf serum (FCS). The cells are seeded at 20,000 cells/well into Becton-Dickinson black 384-well clear bottom sterile plates coated with poly-D-lysine. All reagents were from GIBCO-Invitrogen Corp. The seeded plates are incubated overnight at 37° C. and 5% CO2. Ala-6,12 human orexin-A as the agonist is prepared as a 1 mM stock solution in 1% bovine serum albumin (BSA) and diluted in assay buffer (HBSS containing 20 mM HEPES, 0.1% BSA and 2.5 mM probenecid, pH7.4) for use in the assay at a final concentration of 70 pM. Test compounds are prepared as 10 mM stock solution in DMSO, then diluted in 384-well plates, first in DMSO, then assay buffer. On the day of the assay, cells are washed 3 times with 100 μl assay buffer and then incubated for 60 min (37° C., 5% CO2) in 60 μl assay buffer containing 1 μM Fluo-4AM ester, 0.02% pluronic acid, and 1% BSA. The dye loading solution is then aspirated and cells are washed 3 times with 100 μl assay buffer. 30 μl of that same buffer is left in each well. Within the Fluorescent Imaging Plate Reader (FLIPR, Molecular Devices), test compounds are added to the plate in a volume of 25 μl, incubated for 5 min and finally 25 μl of agonist is added. Fluorescence is measured for each well at 1 second intervals for 5 minutes and the height of each fluorescence peak is compared to the height of the fluorescence peak induced by 70 pM Ala-6,12 orexin-A with buffer in place of antagonist. For each antagonist, IC50 value (the concentration of compound needed to inhibit 50% of the agonist response) is determined. Alternatively, compound potency can be assessed by a radioligand binding assay (described in Bergman et. al. Bioorg. Med. Chem. Lett. 2008, 18, 1425-1430) in which the inhibition constant (Ki) is determined in membranes prepared from CHO cells expressing either the OX1 or OX2 receptor. The intrinsic orexin receptor antagonist activity of a compound which may be used in the present invention may be determined by these assays.

hOX1R = target: T2, hOX1R (Homo sapiens, UniProt O43613); assay: FLIPR Ca2+ Flux Assay, CHO cells expressing the orexin-1 receptor; assay type: cell-based; conditions: agonist 70 pM Ala-6,12 human orexin-A
T2 construct: expressed in transfected cells; host or cells: CHO cells (grown under G418)
T2 sequence (O43613 1-425): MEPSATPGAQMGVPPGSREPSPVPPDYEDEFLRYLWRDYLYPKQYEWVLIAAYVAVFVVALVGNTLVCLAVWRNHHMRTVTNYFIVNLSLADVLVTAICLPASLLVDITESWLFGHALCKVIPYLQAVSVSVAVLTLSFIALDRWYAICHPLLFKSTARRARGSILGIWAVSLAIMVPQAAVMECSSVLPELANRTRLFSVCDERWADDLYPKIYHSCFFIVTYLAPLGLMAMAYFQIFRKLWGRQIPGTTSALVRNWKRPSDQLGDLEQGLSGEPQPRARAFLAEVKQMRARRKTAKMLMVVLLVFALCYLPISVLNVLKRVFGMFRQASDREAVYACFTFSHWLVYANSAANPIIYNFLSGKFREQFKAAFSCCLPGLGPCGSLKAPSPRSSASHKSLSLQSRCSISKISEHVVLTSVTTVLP

- IC50 [1]: 17 nM
- IC50 (hOX1R): 791 nM
Compound: Cc1ccnc(O[C@@H]2CC[C@@H](C)N(C(=O)c3sccc3-c3ncccn3)C2)c1 [Example 22, 2-[2-({(2R,5R)-2-methyl-5-[(4-methylpyridin-2-yl)oxy]piperidin-1-yl}carbonyl)thiophen-3-yl]pyrimidine]
